From PMC2770570 (BMC Cancer, 2009)
Entries after “also recorded” stand apart in the source; their conditions may differ. Structures can show the parent of a compound that is named as a salt.

Columns and labels:
[1] = tested on: KAT-18 cells; assay: Growth of KAT-18 cells transfected with OGFr siRNA or scrambled siRNA; assay type: cell-based, human
Protocol: (§1) The OGFr-targeted siRNAs (antisense:5'-[…]-3'; sense: 5'-[…]-3') were designed and obtained as ready-annealed, purified duplex probes from Ambion (Austin, TX). For transfection, 5 × 10^4 KAT-18 cells per well were seeded in 6-well plates containing 1 ml of serum-containing media without antibiotics. In each well, 20 nM OGFr-siRNA or control siRNA solutions in serum-free media were added. […] At 72 h cells were collected for computing growth. Two independent experiments were conducted. The scrambled siRNAs were purchased from Ambion.

[2] = tested on: KTC-1 cells; assay: Cell proliferation assay (cell number), KTC-1 papillary thyroid cancer cells; assay type: cell-based, human; details: 10^-6 M, 72 h (Fig. 6B)
Protocol: (§2) The ATC cell line, KAT-18, was generously provided by Dr. K.B. Ain, The University of Kentucky, Lexington, KY) and the FTC cell line, WRO 82-1, was established by Dr. G. Juillard (University of California at Los Angeles, CA). The poorly differentiated papillary thyroid carcinoma cell line, KTC-1 [31], was a generous gift of Dr. James A. Fagin (Memorial Sloan Kettering Cancer Center, New York, NY). The KAT-18 cells were grown in phenol-red free RPMI 1640 media (GIBCO/Invitrogen, Carlsbad, CA), and the WRO 82-1 and KTC-1 cells were grown in standard RPMI 1640 media supplemented with 1% non-essential amino acids. All media were supplemented with 10% fetal calf serum, 2 mM L-glutamine, 1.2% sodium bicarbonate, and antibiotics (5,000 Units/ml penicillin, 5 mg/ml streptomycin, 10 mg/ml neomycin). The cell cultures were maintained in a humidified atmosphere of 5% CO2 at 37°C. […]
(§3) Cells were seeded at equivalent amounts into 6- or 24-well plates (Falcon) and counted 24 h later (time 0) to determine plating efficiency. […] Cells were harvested by trypsinization with 0.25% trypsin/0.53 mM EDTA, centrifuged, and counted with a hemacytometer. Cell viability was determined by trypan blue staining. At least two aliquots per well, and 2-4 wells/treatment, were counted for each experiment. […]

[3] = tested on: KAT-18 cells; assay: Apoptosis (TUNEL) in KAT-18 cells; assay type: cell-based, human; details: 72 h, data not shown
Protocol: Cells were harvested after 72 h of drug treatment, and TUNEL assays conducted according to manufacturer's recommendations.

[4] = tested on: KAT-18 cells; assay: Necrosis (trypan blue) in KAT-18 cells; assay type: cell-based, human; details: data not shown
Protocol: Necrosis was recorded as the number of positive trypan blue cells in any cell growth assay.

[5] = tested on: WRO 82-1 cells; assay: Cell proliferation assay (cell number), WRO 82-1 follicular thyroid cancer cells; assay type: cell-based, human; details: 10^-6 M, 72 h (Fig. 7B)
Protocol: as §2, §3

[6] = tested on: KAT-18 cells; assay: DNA synthesis (BrdU incorporation) in KAT-18 cells; assay type: cell-based, human; details: 10^-6 M, 72 h; 30 μM BrdU 3 h prior to fixing (Fig. 5)
Protocol: To examine DNA synthesis, KAT-18 cells were seeded onto 22 mm diameter coverglasses placed in 6-well plates (3 × 10^3 cells/coverglass), and treated with compounds for 72 h; media and drugs were replaced daily. Three h prior to fixing cells, 30 μM BrdU (Sigma Chemicals, Indianapolis, IN) was added to cultures. Cells were rinsed, fixed in 10% neutral buffered formalin for 10 min, and stained with antibodies to BrdU (anti-BrdU-BOD, Roche/Invitrogen). At least 1000 cells/treatment using at least 2 coverglasses/treatment were counted, and the number of positive cells recorded. Labeling indexes were calculated as the number of positive stained cells divided by total cells.

[7] = tested on: KAT-18 cells; assay: Cell proliferation assay (cell number), KAT-18 anaplastic thyroid cancer cells; assay type: cell-based, human
Protocol: The ATC cell line, KAT-18, was generously provided by Dr. K.B. Ain, The University of Kentucky, Lexington, KY) and the FTC cell line, WRO 82-1, was established by Dr. G. Juillard (University of California at Los Angeles, CA). The poorly differentiated papillary thyroid carcinoma cell line, KTC-1 [31], was a generous gift of Dr. James A. Fagin (Memorial Sloan Kettering Cancer Center, New York, NY). […] The cell cultures were maintained in a humidified atmosphere of 5% CO2 at 37°C. All cell lines were free of Mycoplasma and confirmed by single nucleotide polymorphism array analysis to be unique follicular cell-derived thyroid cancer cell lines.
Media and compounds were replaced daily. […] Cell viability was determined by trypan blue staining. At least two aliquots per well, and 2-4 wells/treatment, were counted for each experiment. Two to five experiments were conducted for each measure performed.

[8] = tested on: OGFr protein; assay: Semi-quantitative immunocytochemistry of OGFr protein after siRNA transfection of KAT-18 cells; assay type: cell-based, human; details: 72 h after transfection; mean staining intensity, approximately 50 cells/group (Fig. 4B)
Protocol: as §1
KAT-18 cells were seeded onto coverglasses, transiently transfected with OGFr-siRNA, and 72 h later stained with polyclonal antibodies to OGFr in order to detect the level of protein knockdown. OGFr protein levels were assessed by semi-quantitative immunocytochemistry whereby images were taken at the same exposure time with special care not to photobleach samples. The mean intensity of staining was determined for approximately 50 cells/group.

[9] = tested on: OGFr mRNA; assay: Northern blot analysis of OGFr after siRNA transfection of KAT-18 cells; assay type: cell-based, human; details: 20 nM siRNA; OGFr/GAPDH ratio by densitometry (Fig. 4A)
Protocol: as §1
Some cultures were transfected with siRNAs and then harvested 72 h later for Northern analysis. Total RNA was extracted using the Paris Kit (Ambion), separated on an agarose gel, and mRNA transferred to nylon membrane (Immobilon, Bio-Rad Laboratories, Hercules, CA). Membranes were probed with ^32P-dCTP- OGFr cDNA. To determine equal loading, blots were stripped and reprobed with radiolabeled GAPDH and optical density of each band was determined by densitometry and analyzed by QuickOne (Bio-Rad Laboratories). Each value was normalized to GAPDH from the same blot.

[10] = target: T1, OGFr (Homo sapiens, UniProt Q9NZT2); assay: receptor binding assay
T1 chain: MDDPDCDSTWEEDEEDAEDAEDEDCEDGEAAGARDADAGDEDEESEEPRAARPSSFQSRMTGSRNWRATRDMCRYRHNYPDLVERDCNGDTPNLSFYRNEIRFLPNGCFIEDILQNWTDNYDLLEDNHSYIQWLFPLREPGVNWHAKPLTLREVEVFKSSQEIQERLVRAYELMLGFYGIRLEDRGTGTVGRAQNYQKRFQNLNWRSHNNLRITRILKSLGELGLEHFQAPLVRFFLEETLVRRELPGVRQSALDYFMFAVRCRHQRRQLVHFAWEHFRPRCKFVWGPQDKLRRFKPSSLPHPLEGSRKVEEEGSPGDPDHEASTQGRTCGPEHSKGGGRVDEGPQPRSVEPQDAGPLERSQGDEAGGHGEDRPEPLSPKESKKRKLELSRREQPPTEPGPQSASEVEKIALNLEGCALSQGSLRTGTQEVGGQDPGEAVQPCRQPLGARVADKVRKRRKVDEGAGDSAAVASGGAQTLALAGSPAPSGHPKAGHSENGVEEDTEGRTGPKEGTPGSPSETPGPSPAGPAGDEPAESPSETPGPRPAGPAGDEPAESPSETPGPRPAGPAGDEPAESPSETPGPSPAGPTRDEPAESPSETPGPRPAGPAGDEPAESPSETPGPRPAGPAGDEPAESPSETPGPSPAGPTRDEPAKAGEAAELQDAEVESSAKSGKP

[11] = 10^-6 M NTX, cultures receiving OGFr siRNA (Fig. 4C)
[12] = 10^-6 M, 72 h, opioid specificity experiment (Fig. 3A)
[13] = 10^-6 M OGF, cells transfected with OGFr siRNA (Fig. 4C)

O=C1CC[C@@]2(O)[C@H]3Cc4ccc(O)c5c4[C@@]2(CCN3CC2CC2)[C@H]1O5 [NTX, naltrexone]
cell number vs OGFr siRNA plus vehicle [1, 11]: did not differ from cells receiving OGFr siRNA plus vehicle | increase in cell number vs wildtype cells [1, 11]: 70% | increase in cell number vs wildtype cells receiving vehicle ([1]; 10^-6 M NTX, untreated and scrambled siRNA cultures (Fig. 4C)): 32% | increase in cell number from control [2]: 30% | apoptosis relative to positive control samples [3]: negligible | number of apoptotic cells vs control [3]: No differences in the number of apoptotic or necrotic cells | necrosis [4]: negligible | number of necrotic cells vs control [4]: No differences in the number of apoptotic or necrotic cells | increase in cell number from control [5]: 30% | increase in DNA synthesis (BrdU) vs control [6]: 25%

CN1CC[C@]23c4c5ccc(O)c4O[C@H]2[C@@H](O)C=C[C@H]3[C@H]1C5 [morphine, morphine sulfate]
effect on cell proliferation vs control [7, 12]: Only OGF altered cell proliferation significantly

C=CCN1CC[C@]23c4c5ccc(O)c4O[C@H]2C(=O)CC[C@@]3(O)[C@H]1C5 [naloxone]
effect of naloxone on the OGF-induced depression in cell acquisition ([7]; KAT-18 cells): blocked the depression in cell acquisition | change in cell number vs control ([7]; naloxone 10^-6 M with or without OGF 10^-6 M, 72 h (Fig. 2C)): no change in cell number; also recorded: did not have any influence on cell replication

[D-Ala^2, MePhe^4, Glycol^5]-enkephalin [DAMGO]
effect on cell proliferation vs control [7, 12]: Only OGF altered cell proliferation significantly

[D-Pen^2,5]-enkephalin [DPDPE]
effect on cell proliferation vs control [7, 12]: Only OGF altered cell proliferation significantly

[Met^5]-enkephalin [OGF]
cell number, OGF vs sterile water [1, 13]: did not differ in cell number from each other | effect on cell number [1, 13]: no effect | reduction in cell number ([1]; 10^-6 M OGF, untransfected cultures and those transfected with scrambled siRNAs (Fig. 4C)): 30% | reduction in cell number from control [2]: 31% | reduction in cell number from control ([7]; 10^-4 M, 72 h, dose-response (Fig. 2A)): 38% | reduction in cell number from control ([7]; 10^-5 M, 72 h, dose-response (Fig. 2A)): 13% | reduction in cell number from control ([7]; 10^-6 M continuously, at 96 h (Fig. 2D)): 16% | reduction in cell number from control ([7]; 10^-6 M continuously, at 120 h (Fig. 2D)): 28% | reduction in cell number from control ([7]; 10^-6 M for 72 h, then media without OGF, at 96 h (Fig. 2D)): 6% | reduction in cell number from control ([7]; 10^-6 M for 72 h, then media without OGF, at 120 h (Fig. 2D)): 8% | reduction in cell number from control ([7]; 10^-6 M, 72 h, dose-response (Fig. 2A)): 14% | reduction in cell number from control ([7]; 10^-6 M, 72 h, naloxone experiment (Fig. 2C)): 20% | decrease in cell number from control [7, 12]: 33% | reduction in cell number from control ([7]; 10^-6 M, 72 h, reversibility study (Fig. 2D)): 22% | effect on cell number vs control ([7]; 10^-7 M, 72 h, dose-response (Fig. 2A)): no significant effect on cell number | duration of growth repression in presence of drug ([7]; KAT-18 cells): up to 120 h | time to observed growth repression after initiating drug exposure ([7]; KAT-18 cells): ≤ 24 h | maximum reduction in cell number ("by as much as") ([7]; KAT-18 cells, abstract): ≤ 38% | number of apoptotic cells vs control [3]: No differences in the number of apoptotic or necrotic cells | necrosis [4]: negligible | number of necrotic cells vs control [4]: No differences in the number of apoptotic or necrotic cells | reduction in cell number from control [5]: 17% | decrease in proportion of BrdU labeled cells vs control [6]: 28%

antisense:5'-uagaaacucagguuuggcg-3'; sense: 5'-cgccaaaccugaguuucua-3' (sense CGCCAAACCUGAGUUUCUA; antisense UAGAAACUCAGGUUUGGCG; chemistry not fully specified) [OGFr siRNA, OGFr-targeted siRNAs, ready-annealed, purified duplex probes from Ambion]
increase in cell number vs vehicle only and scrambled siRNA ([1]; 20 nM siRNA, 72 h (Fig. 4C)): approximately 70% | effectiveness of OGFr siRNA knockdown in increasing cell number relative to NTX ([1]; KAT-18 cells): over twice as effective | decrease in OGFr protein expression relative to untransfected and scrambled siRNA cells [8]: 47% | OGFr level relative to cells treated with vehicle only [9]: less than 25%

dynorphin A1-8 (YGGFLRRI; Dynorphin A(1-8); UniProt P01213 207-214, looked up)
effect on cell proliferation vs control [7, 12]: Only OGF altered cell proliferation significantly

endomorphin 1
effect on cell proliferation vs control [7, 12]: Only OGF altered cell proliferation significantly

endomorphin 2
effect on cell proliferation vs control [7, 12]: Only OGF altered cell proliferation significantly

β-endorphin (YGGFMTSEKSQTPLVTLFKNAIIKNAYKKGE; Beta-endorphin; UniProt P01189 237-267, looked up)
effect on cell proliferation vs control [7, 12]: Only OGF altered cell proliferation significantly

YGGFM [opioid growth factor (OGF)]
Kd [10]: 3.5 nM
